Laboratory results from patent publication US20150086986A1, “METHOD TO PREDICT THE PRESENCE OF INFLAMMATION OR ITACONIC ACID, IRG1 AND/OR PROTEIN IRG1 IN A SUBJECT AND PHARMACEUTICAL COMPOSITION FOR TREATING OR PREVENTING INFLAMMATION” (priority 2011, published 2015).

Tests used:
[1] = tested on: Salmonella enterica serovar Typhimurium; experiment: S. enterica growth in liquid minimal medium with acetate as unique carbon source; type: cell-based
Protocol: To directly investigate the effect of itaconic acid on bacterial replication, S. enterica was grown in liquid minimal medium supplemented with acetate as the unique carbon source and various concentrations of itaconic acid. […] S. enterica was grown in liquid medium with acetate as unique carbon source in the presence of increasing concentrations of itaconic acid (5, 10, 50, 100 mM). The optical density (OD) was measured every hour to record the bacterial growth. Curves are calculated in % relative to time 0 and represent the mean of three independent experiments.

Streptococcus pyogenes = experiment: Bacterial phagocytosis and killing assay in siRNA-transfected RAW264.7 macrophages infected with S. pyogenes; type: cell-based; conditions: streptococci compared with Salmonella
Protocol: Bacterial phagocytosis and killing assay were conducted to test the influence of the uptake of S. pyogenes by transfected (siRNA IRG1) mouse macrophages (RAW264.7 cell line) after 1 h, 2 h and 4 h of incubation.
Transfected RAW264.7 macrophages (with unspecific siRNA or IRG1 specific siRNA) were infected with Streptococcus pyogenes strain A20 at a multiplicity of infection (MOI) of 10:1 (10 bacteria per macrophage) and incubated for 1 h at 37° C., 5% CO2. Macrophages were then washed with sterile PBS, resuspended in complete medium containing […] gentamicin to kill non ingested bacteria and further incubated for 2 h at 37° C., 5% CO2. Macrophages were then disrupted with dH2O to release intracellular bacteria (this was considered time 0 h relative to gentamicin treatment) or 1, 2, 4 h later (this was considered time 1, 2, 4 h relative to gentamicin treatment) and the amount of viable intracellular bacteria was determined by plating on blood agar.
RAW264.7 cells were transfected with either siRNA specific for IRG1 or with siRNA Ctr. […] Macrophages were then disrupted with H2O to release intracellular bacteria and the amount of viable intracellular bacteria was determined by plating on blood agar. […]

[2] = tested on: bacterial isocytrate lyase (ICL); conditions: literature reports; cited from earlier work
[3] = Cis-aconitate decarboxylase (CAD) activity assay of purified Flag-IRG1; type: biochemical, Mus musculus; conditions: peak activity fraction; 1 mM cis-aconitate, 30° C., 40 min, pH 7.1
Protocol: HEK293T cells were extracted 48 hours after transfection by scraping them into a lysis buffer containing 25 mM Hepes, pH 7.1 and 1× protease inhibitor cocktail (Roche). After two freeze/thaw cycles, cell extracts were incubated for 30 min on ice in the presence of DNAse I (200 U/ml extract; Roche Applied Science) and 10 mM MgSO4. The crude cell extracts were centrifuged for 5 min at 16000×g (4° C.) and pellets were resuspended in lysis buffer for SDS-PAGE analysis. Flag-IRG1 was purified from the supernatant using the Flag®M purification kit, according to the manufacturer's instructions (Sigma Aldrich). […] Protein concentration was measured by the Bradford assay using Bradford reagent (Bio-Rad).
Cis-aconitate decarboxylase activity was measured by incubating cell extracts or purified protein fractions (10 μl) at 30° C. and for 40 min in a reaction mixture containing 25 mM Hepes, pH 7.1 and 1 mM cis-aconitate in a total volume of 100 μl. […] The dry residue was derivatized and itaconic acid was quantified by GC-MS as described below. Itaconic acid concentrations were calculated by comparing the corresponding GC/MS signals obtained in samples with the one obtained after injection of known amounts of itaconic acid standards. […]
Cis-aconitate decarboxylase activity was measured in cell extracts and purification fractions. […]

Row | Molecule | itaconic acid concentration with significant effect on growth inhibition ([1]; 5, 10, 50, 100 mM tested, OD every hour) | bacterial growth inhibition ([1]; increasing concentrations of itaconic acid) | antimicrobial effect of itaconic acid (Streptococcus pyogenes) | inhibition of isocitrate lyase [2] | CAD specific activity [3]
1 | C=C(CC(=O)O)C(=O)O [itaconic acid] | higher than 10 mM | dose-dependent growth inhibition | less pronounced in streptococci than in Salmonella | inhibits | 
2 | Flag-IRG1: FLAG-tagged IRG1 protein purified from HEK293T cells transfected with a pCMV6-Entry-IRG1 expression plasmid |  |  |  |  | about 40 nmol min^−1 mg protein^−1
